Target: MbtA (Mycobacterium tuberculosis, UniProt P71716)
Assay: […]
Assay type: biochemical

Chain of MbtA (P71716 whole entry): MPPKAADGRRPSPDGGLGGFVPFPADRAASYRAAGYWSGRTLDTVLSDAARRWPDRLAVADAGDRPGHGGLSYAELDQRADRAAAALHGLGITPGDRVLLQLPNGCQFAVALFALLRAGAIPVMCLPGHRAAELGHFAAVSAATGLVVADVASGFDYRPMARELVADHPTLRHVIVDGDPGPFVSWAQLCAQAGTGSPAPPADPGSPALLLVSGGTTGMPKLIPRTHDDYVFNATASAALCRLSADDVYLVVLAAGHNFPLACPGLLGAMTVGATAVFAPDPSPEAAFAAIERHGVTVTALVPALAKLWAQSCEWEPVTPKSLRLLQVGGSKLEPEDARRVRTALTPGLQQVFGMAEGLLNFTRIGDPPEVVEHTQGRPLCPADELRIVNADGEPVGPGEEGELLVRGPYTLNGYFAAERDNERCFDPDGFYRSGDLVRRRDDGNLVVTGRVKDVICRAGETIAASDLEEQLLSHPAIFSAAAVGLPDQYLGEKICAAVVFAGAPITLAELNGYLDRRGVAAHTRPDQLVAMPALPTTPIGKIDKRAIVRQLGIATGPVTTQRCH

## Sal-AMS ABP [compound 6]
  Ki: 0.94 nM

From PMC3477287 (ACS chemical biology, 2012)
